Legend:
Test in all cases: biochemical
[1] = target: T1, HCV NS3/4A protease D168A variant (Hepatitis C virus genotype 1a, UniProt P27958, C1185S/D1194A); format: biochemical
T1 construct: His-tag (cleaved yes); made in house; host or cells: Escherichia coli BL21(DE3), PET28a vector
Experimental: (§1) The HCV GT1a NS3/4A protease gene described in the Bristol Myers Squibb patent was synthesized by GenScript and cloned into a PET28a expression vector. Cys159 was mutated to a serine residue to prevent disulfide bond formation and facilitate crystallization. The D168A gene was engineered using the site-directed mutagenesis protocol from Stratagene. Protein expression and purification were carried out as previously described.
(§2) Km constants for GT1 and D168A protease were previously determined. […] Inner filter effect corrections were applied to the initial velocities (Vo) at each substrate concentration. Vo versus substrate concentration graphs were globally fit to the Michaelis-Menten equation to obtain the Km value.
(§3) For each assay, 2 nM of NS3/4A protease (GT1a and D168A) was pre-incubated at room temperature for 1 h with increasing concentration of inhibitors in assay buffer (50 mM Tris, 5% glycerol, 10 mM DTT, 0.6 mM LDAO, and 4% dimethyl sulfoxide, pH 7.5). Inhibition assays were performed in non-binding surface 96-well black half-area plates (Corning) in a reaction volume of 60 μL. […] Three independent data sets were collected for each inhibitor with each protease construct.

[2] = system: HCV NS3/4A protease D168A variant; format: biochemical, Hepatitis C virus; conditions: for Fold Change of D168A Ki with respect to GT1a wild-type: Table S1, value in parentheses
Experimental: as §1, §2, §3

[3] = target: T2, wild-type HCV NS3/4A protease (GT1a) (Hepatitis C virus genotype 1a, UniProt P27958, C1185S); format: biochemical
T2 construct: His-tag (cleaved yes); made in house; host or cells: Escherichia coli BL21(DE3), PET28a vector
Experimental: as §1, §2, §3

[4] = target: HCV NS3/4A protease GT3 (Hepatitis C virus genotype 3a, UniProt Q81495)
HCV NS3/4A protease GT3, sequence (Q81495 1033-1214): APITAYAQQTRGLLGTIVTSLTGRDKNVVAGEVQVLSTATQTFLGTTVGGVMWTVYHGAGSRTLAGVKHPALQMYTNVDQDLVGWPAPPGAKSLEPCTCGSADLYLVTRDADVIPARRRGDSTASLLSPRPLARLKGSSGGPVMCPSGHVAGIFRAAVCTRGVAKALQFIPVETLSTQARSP
HCV NS3/4A protease GT3, sequence (Q81495 1664-1717): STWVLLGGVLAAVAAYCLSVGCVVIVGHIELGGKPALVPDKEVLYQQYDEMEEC

T2 sequence (P27958 1027-1208 C1185S): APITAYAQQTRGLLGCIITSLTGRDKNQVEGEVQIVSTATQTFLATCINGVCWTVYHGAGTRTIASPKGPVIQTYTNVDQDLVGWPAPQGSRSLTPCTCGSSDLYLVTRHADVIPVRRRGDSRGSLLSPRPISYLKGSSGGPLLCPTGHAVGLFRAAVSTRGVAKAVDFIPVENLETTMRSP
T1 sequence (P27958 1027-1208 C1185S/D1194A): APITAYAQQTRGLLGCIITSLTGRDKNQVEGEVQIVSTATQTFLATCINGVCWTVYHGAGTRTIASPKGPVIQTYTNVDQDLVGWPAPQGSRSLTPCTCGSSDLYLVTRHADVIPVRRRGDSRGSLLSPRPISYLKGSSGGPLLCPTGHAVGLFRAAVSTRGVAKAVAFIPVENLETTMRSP

SMILES	Ki [1] [nM]	Fold Change of D168A Ki with respect to GT1a wild-type [2]	Ki [3] [nM]	fold increase in potency against D168A compared to the parent compound [1] [fold]	Ki [4] [nM]	fold less potent than the methyl carbamate analog P4P5-3B ([2]; acetamide (3A) vs methyl carbamate (3B)) [fold]	fold more potent than grazoprevir towards D168A ([1]; compared to grazoprevir) [fold]	fold loss in potency against D168A relative to WT [2] [fold]
COc1ccc2nc(C)c(O[C@@H]3C[C@H]4C(=O)N[C@]5(C(=O)NS(=O)(=O)C6(C)CC6)C[C@H]5/C=C\CCCCC[C@H](NC(=O)[C@@H](NC(C)=O)C(C)(C)C)C(=O)N4C3)nc2c1 [Inhibitor P4P5-2A, (2R,6S,13aS,14aR,16aS,Z)-6-((S)-2-Acetamido-3,3-dimethylbutanamido)-2-((7-methoxy-3-methylquinoxalin-2-yl)oxy)-N-((1-methylcyclopropyl)sulfonyl)-5,16-dioxo-1,2,3,6,7,8,9,10,11,13a,14,15,16,16a-tetradecahydrocyclopropa[e]pyrrolo[1,2-a][1,4]diazacyclopentadecine-14a(5H)-carboxamide]	215 ± 16	(9) fold	23.9 ± 1.7	–	–	–	–	–
COc1ccc2nc(C)c(O[C@@H]3C[C@H]4C(=O)N[C@]5(C(=O)NS(=O)(=O)C6(C)CC6)C[C@H]5/C=C\CCCCC[C@H](NC(=O)OC5(C)CC5)C(=O)N4C3)nc2c1 [NR02-24, 1-Methylcyclopropyl ((2R,6S,13aS,14aR,16aS,Z)-2-((7-methoxy-3-methylquinoxalin-2-yl)oxy)-14a-(((1-methylcyclopropyl)sulfonyl)carbamoyl)-5,16-dioxo-1,2,3,5,6,7,8,9,10,11,13a,14,14a,15,16,16a-hexadecahydrocyclopropa[e]pyrrolo [1,2-a][1,4]diazacyclopentadecin-6-yl)carbamate]	27.9 ± 4.1	(6) fold	4.44 ± 0.3	~2	–	–	–	–
COc1ccc2nc(C(F)(F)F)c(O[C@@H]3C[C@H]4C(=O)N[C@]5(C(=O)NS(=O)(=O)C6(C)CC6)C[C@H]5/C=C\CCCCC[C@H](NC(=O)O[C@@H]5C[C@@H]6C[C@@H]6C5)C(=O)N4C3)nc2c1 [NR04-49, (1R,3R,5S)-Bicyclo[3.1.0]hexan-3-yl ((2R,6S,13aS,14aR,16aS,Z)-2-((7-methoxy-3-(trifluoromethyl)quinoxalin-2-yl)oxy)-14a-(((1-methylcyclopropyl)sulfonyl)carbamoyl)-5,16-dioxo-1,2,3,5,6,7,8,9,10,11,13a,14,14a,15,16,16a-hexadecahydrocyclopropa[e]pyrrolo[1,2-a][1,4]diazacyclopentadecin-6-yl)carbamate]	–	–	–	–	170 ± 13	–	–	–
COC(=O)N[C@H](C(=O)N[C@H]1CCCCC/C=C\[C@@H]2C[C@@]2(C(=O)NS(=O)(=O)C2(C)CC2)NC(=O)[C@@H]2C[C@@H](Oc3nc4cc(OC)ccc4nc3C)CN2C1=O)C1CCCC1 [Inhibitor P4P5-3B, Methyl ((S)-1-cyclopentyl-2-(((2R,6S,13aS,14aR,16aS,Z)-2-((7-methoxy-3-methylquinoxalin-2-yl)oxy)-14a-(((1-methylcyclopropyl)sulfonyl)carbamoyl)-5,16-dioxo-1,2,3,5,6,7,8,9,10,11,13a,14,14a,15,16,16a-hexadecahydrocyclopropa[e]pyrrolo[1,2-a][1,4]diazacyclopentadecin-6-yl)amino)-2-oxoethyl)carbamate]	31.6 ± 2.1	(9) fold	3.54 ± 0.13	–	–	–	–	–
CCC1(OC(=O)N[C@H]2CCCCC/C=C\[C@@H]3C[C@@]3(C(=O)NS(=O)(=O)C3(C)CC3)NC(=O)[C@@H]3C[C@@H](Oc4nc5cc(OC)ccc5nc4C)CN3C2=O)CCCC1 [NR01-97, 1-Ethylcyclopentyl ((2R,6S,13aS,14aR,16aS, Z)-2-((7-methoxy-3-methylquinoxalin-2-yl)oxy)-14a-(((1-methylcyclopropyl)sulfonyl)carbamoyl)-5,16-dioxo-1,2,3,5,6,7,8,9,10,11,13a,14,14a,15,16,16a-hexadecahydrocyclopropa[e]pyrrolo[1,2-a][1,4]diazacyclopentadecin-6-yl) carbamate]	21.7 ± 2.3	(17) fold	1.29 ± 0.05	~3	–	–	–	–
COc1ccc2nc(C)c(O[C@@H]3C[C@H]4C(=O)N[C@]5(C(=O)NS(=O)(=O)C6(C)CC6)C[C@H]5/C=C\CCCCC[C@H](NC(=O)[C@@H](NC(C)=O)C5CCCC5)C(=O)N4C3)nc2c1 [Inhibitor P4P5-3A, (2R,6S,13aS,14aR,16aS, Z)-6-((S)-2-acetamido-2-cyclopentylacetamido)-2-((7-methoxy-3-methylquinoxalin-2-yl)oxy)-N-((1-methylcyclopropyl)sulfonyl)-5,16-dioxo-1,2,3,6,7,8,9,10,11,13a,14,15,16,16a-tetradecahydrocyclopropa[e]pyrrolo[1,2-a][1,4]diazacyclopentadecine-14a(5H)-carboxamide]	87.3	(39) fold	2.23 ± 0.07	–	–	~3	–	–
CC[C@H](C)[C@H](NC(C)=O)C(=O)N[C@H]1CCCCC/C=C\[C@@H]2C[C@@]2(C(=O)NS(=O)(=O)C2(C)CC2)NC(=O)[C@@H]2C[C@@H](Oc3nc4cc(OC)ccc4nc3C)CN2C1=O [Inhibitor P4P5-4, (2R,6S,13aS,14aR,16aS,Z)-6-((2S,3S)-2-acetamido-3-methylpentanamido)-2-((7-methoxy-3-methylquinoxalin-2-yl)oxy)-N-((1-methylcyclopropyl)sulfonyl)-5,16-dioxo-1,2,3,6,7,8,9,10,11,13a,14,15,16,16a-tetradecahydrocyclopropa[e]pyrrolo[1,2-a][1,4]diazacyclopentadecine-t4a(5H)-carboxamide]	81	(11) fold	7.1 ± 0.24	–	–	–	–	–
COC(=O)N[C@H](C(=O)N[C@H]1CCCCC/C=C\[C@@H]2C[C@@]2(C(=O)NS(=O)(=O)C2(C)CC2)NC(=O)[C@@H]2C[C@@H](Oc3nc4cc(OC)ccc4nc3C)CN2C1=O)C(C)(C)C [Inhibitor P4P5-2B, Methyl ((S)-1-(((2R,6S,13aS,14aR,16aS,Z)-2-((7-methoxy-3-methylquinoxalin-2-yl)oxy)-14a-(((1-methylcyclopropyl)sulfonyl)carbamoyl)-5,16-dioxo-1,2,3,5,6,7,8,9,10,11,13a,14,14a,15,16,16a-hexadecahydrocyclopropa[e]pyrrolo[1,2-a][1,4]diazacyclopentadecin-6-yl)amino)-3,3-dimethyl-1-oxobutan-2-yl)carbamate]	201 ± 15	(8) fold	29.5 ± 1.9	–	–	–	–	–
COC(=O)N[C@H](C(=O)N[C@H]1CCCCC/C=C\[C@@H]2C[C@@]2(C(=O)NS(=O)(=O)C2(C)CC2)NC(=O)[C@@H]2C[C@@H](Oc3nc4cc(OC)ccc4nc3C)CN2C1=O)C1CCCCC1 [Inhibitor P4P5-6, Methyl ((S)-1-cyclohexyl-2-(((2R,6S,13aS,14aR,16aS,Z)-2-((7-methoxy-3-methylquinoxalin-2-yl)oxy)-14a-(((1-methylcyclopropyl)sulfonyl)carbamoyl)-5,16-dioxo-1,2,3,5,6,7,8,9,10,11,13a,14,14a,15,16,16a-hexadecahydrocyclopropa[e]pyrrolo[1,2-a][1,4]diazacyclopentadecin-6-yl)amino)-2-oxoethyl)carbamate]	9.68 ± 0.64	(11) fold	0.91 ± 0.38	–	–	–	5	–
COc1ccc2nc(C)c(O[C@@H]3C[C@H]4C(=O)N[C@]5(C(=O)NS(=O)(=O)C6(C)CC6)C[C@H]5/C=C\CCCCC[C@H](NC(=O)[C@@H](NC(C)=O)C(C)C)C(=O)N4C3)nc2c1 [Inhibitor P4P5-1A, (2R,6S,13aS,14aR,16aS,Z)-6-((S)-2-Acetamido-3-methylbutanamido)-2-((7-methoxy-3-methylquinoxalin-2-yl)oxy)-N-((1-methylcyclopropyl)sulfonyl)-5,16-dioxo-1,2,3,6,7,8,9,10,11,13a,14,15,16,16a-tetradecahydrocyclopropa[e]pyrrolo[1,2-a][1,4]diazacyclopentadecine-14a(5H)-carboxamide]	141 ± 18	(13) fold	11.1 ± 0.5	–	–	–	–	–
COC(=O)NC1(C(=O)N[C@H]2CCCCC/C=C\[C@@H]3C[C@@]3(C(=O)NS(=O)(=O)C3(C)CC3)NC(=O)[C@@H]3C[C@@H](Oc4nc5cc(OC)ccc5nc4C)CN3C2=O)CCCC1 [Inhibitor P4P5-5, Methyl (1-(((2R,6S,13aS,14aR,16aS,Z)-2-((7-methoxy-3-methylquinoxalin-2-yl)oxy)-14a-(((1-methylcyclopropyl)sulfonyl)carbamoyl)-5,16-dioxo-1,2,3,5,6,7,8,9,10,11,13a,14,14a,15,16,16a-hexadecahydrocyclopropa[e]pyrrolo[1,2-a][1,4]diazacyclopentadecin-6-yl)carbamoyl)cyclopentyl)carbamate]	931 ± 70	(30) fold	31 ± 2.74	–	–	–	–	30

Source: US12441762B2, “Hepatitis c virus NS3/4A protease inhibitors” (priority 2019, dated 2025)
